Patent publication US8981148B2, “Esteramide compounds, methods for preparing same, and uses thereof” (priority 2010, dated 2015)

Assays:
Format in all cases: physicochemical
[1] = Solubility of agrochemical actives in the solvents: visual observation at 0° C. with nucleation; set-up: key: Crystal: When the formation of active crystals is observed, the term of <> is indicated; Limpid: When the solution remains limpid (absence of solid or cloudiness), it is the term of <> which is indicated; details: crystal of active added, further 7 days at 0° C.
Description: Formulations were made by diluting various actives, reported below in the table, in the compounds 1C, 2C, 3 and 4 synthesized above. 3) Visual observation at 0° C. with nucleation (by introducing a crystal of the pure active into the liquid) A crystal of the active material is introduced into the formulation which has spent 7 days at 0° C. for nucleation, and the formulation is again placed for 7 days at 0° C. The aspect of the formulation is noted and the presence of crystals or the growth of the introduced crystal is possibly located. The actives used are commercially available.

[2] = Solubility of agrochemical actives in the solvents: visual observation at 0° C. after 7 days (CIPAC MT39 test); set-up: key: Crystal: When the formation of active crystals is observed, the term of <> is indicated; Limpid: When the solution remains limpid (absence of solid or cloudiness), it is the term of <> which is indicated; details: 7 days at 0° C.
Description: (§1) Formulations were made by diluting various actives, reported below in the table, in the compounds 1C, 2C, 3 and 4 synthesized above.
2) Visual observation at 0° C.
The formulation is placed at 0° C. for 7 days and the aspect of the formulation is noted and the presence of crystals is possibly located (CIPAC MT39 test).
(§2) The actives used are commercially available.

[3] = Solubility of agrochemical actives in the solvents: visual observation at 25° C.; set-up: key: Crystal: When the formation of active crystals is observed, the term of <> is indicated; Limpid: When the solution remains limpid (absence of solid or cloudiness), it is the term of <> which is indicated
Description: as §1
1) Visual observation at 25° C.
The aspect of the formulation is noted and the presence of crystals is possibly located.
as §2

[4] = Measurement of solubility of the solvent in water; details: +20° C., stirred 2 hours, visual limpidity
Description: In a glass flask, a specific weight of compound is weighed. A known mass of water is added on to this compound. T his mixture is magnetically stirred at a temperature of +20° C. for 2 hours. After this period, if visually, the solution has cloudiness or heterogeneity, a new mass of water is added to the mixture. This iteration occurs until a limpid solution is obtained. Maximum solubility is then less than the last value having led to a cloudy or heterogeneous mixture and greater than that having led to a limpid mixture.

[5] = Active Alachlor 48% EC in the compound as solvent
[6] = Active Difenconazole 25% EC in the compound as solvent
[7] = Active Phenmedipham 16% EC in the compound as solvent
[8] = Active Propanil 36% EC in the compound as solvent
[9] = Active Propuxur 20% EC in the compound as solvent
[10] = Active alpha-Cypermethrin 10% EC in the compound as solvent
[11] = Active Azoxystrobin 25% EC in the compound as solvent
[12] = Active Dimethoate 40% EC in the compound as solvent
[13] = Active Oxyfluorfen 22% EC in the compound as solvent
[14] = Active Pendimethalin 33% EC in the compound as solvent
[15] = Active Tebuconazole 25% EC in the compound as solvent
[16] = Active Trifluralin 40% EC in the compound as solvent
[17] = Active Chlorpyrifos 40% EC in the compound as solvent

Row | SMILES | Aspect at 0° C. with nucleation [1, 5] | Aspect at 0° C. with nucleation [1, 6] | Aspect at 0° C. with nucleation [1, 8] | Aspect at 0° C. with nucleation [1, 10] | Aspect at 0° C. [2, 5] | Aspect at 0° C. [2, 6] | Aspect at 0° C. [2, 12] | Aspect at 0° C. [2, 13] | Aspect at 0° C. [2, 14] | Aspect at 0° C. [2, 8] | Aspect at 0° C. [2, 9] | Aspect at 0° C. [2, 16] | Aspect at 0° C. [2, 10] | Aspect at 25° C. [3, 5] | Aspect at 25° C. [3, 6] | Aspect at 25° C. [3, 12] | Aspect at 25° C. [3, 13] | Aspect at 25° C. [3, 14] | Aspect at 25° C. [3, 8] | Aspect at 25° C. [3, 16] | other results
1 | COC(=O)C(=O)N(C)C [Compound 1, methyl 2-(dimethylamino)-2-oxoacetate] | Limpid | Limpid | Limpid | Limpid | Limpid | Limpid | Crystal | Crystal | Crystal | Limpid | Limpid | Crystal | Limpid | Limpid | Limpid | Limpid | Limpid | Limpid | Limpid | Limpid | Aspect at 0° C. with nucleation [1, 7]: Limpid; Aspect at 0° C. with nucleation [1, 9]: Limpid; Aspect at 0° C. [2, 11]: Crystal; Aspect at 0° C. [2, 7]: Limpid; Aspect at 0° C. [2, 15]: Crystal; Aspect at 25° C. [3, 11]: Limpid; Aspect at 25° C. [3, 7]: Limpid; Aspect at 25° C. [3, 9]: Limpid; Aspect at 25° C. [3, 15]: Limpid; Aspect at 25° C. [3, 10]: Limpid
2 | CCCCC(CC)COC(=O)C(=O)N(C)C (centres unmarked) [Compound 3, 2-ethyl-hexyl 2-(dimethylamino)-2-oxoacetate] | Limpid | Limpid | Limpid | Limpid | Limpid | Limpid | Crystal | Limpid | Crystal | Limpid | Crystal | Limpid | Limpid | Limpid | Limpid | Limpid | Limpid | Limpid | Limpid | Limpid | Aspect at 0° C. with nucleation [1, 17]: Limpid; Aspect at 0° C. with nucleation [1, 13]: Crystal; Aspect at 0° C. with nucleation [1, 16]: Limpid; Solubility in water (wt %) [4]: <0.1 wt %; Aspect at 0° C. [2, 17]: Limpid; Aspect at 25° C. [3, 17]: Limpid; Aspect at 25° C. [3, 9]: Limpid; Aspect at 25° C. [3, 10]: Limpid
3 | CCCCCCCCCCOC(=O)C(=O)N(C)C [Compound 4, n-decyl 2-(dimethylamino)-2-oxoacetate] | Limpid | Limpid | Limpid | – | Limpid | Limpid | – | Limpid | – | Limpid | – | Crystal | – | Limpid | Limpid | – | Limpid | – | Limpid | Limpid | Aspect at 0° C. with nucleation [1, 13]: Limpid; Solubility in water (wt %) [4]: <0.025 wt %; Aspect at 0° C. [2, 17]: Crystal; Aspect at 25° C. [3, 17]: Limpid
4 | CCOC(=O)C(=O)N(C)C [Compound 2, ethyl 2-(dimethylamino)-2-oxoacetate] | Limpid | Limpid | Limpid | Limpid | Limpid | Limpid | Limpid | Limpid | Crystal | Limpid | Crystal | Limpid | Limpid | Limpid | Limpid | Limpid | Limpid | Limpid | Limpid | Limpid | Aspect at 0° C. with nucleation [1, 17]: Limpid; Aspect at 0° C. with nucleation [1, 12]: Crystal; Aspect at 0° C. with nucleation [1, 13]: Limpid; Aspect at 0° C. with nucleation [1, 7]: Limpid; Aspect at 0° C. with nucleation [1, 16]: Limpid; Aspect at 0° C. [2, 11]: Crystal; Aspect at 0° C. [2, 17]: Limpid; Aspect at 0° C. [2, 7]: Limpid; Aspect at 0° C. [2, 15]: Crystal; Aspect at 25° C. [3, 11]: Limpid; Aspect at 25° C. [3, 17]: Limpid; Aspect at 25° C. [3, 7]: Limpid; Aspect at 25° C. [3, 9]: Limpid; Aspect at 25° C. [3, 15]: Limpid; Aspect at 25° C. [3, 10]: Limpid
